Molecules are shown by their SMILES.

Format in all cases: cell-based
Assay [1] addresses T1, human TLR7 (Homo sapiens, UniProt Q9NYK1).
T1 construct: host or cells: HEK-Blue cells
T1 sequence (Q9NYK1 27-1049): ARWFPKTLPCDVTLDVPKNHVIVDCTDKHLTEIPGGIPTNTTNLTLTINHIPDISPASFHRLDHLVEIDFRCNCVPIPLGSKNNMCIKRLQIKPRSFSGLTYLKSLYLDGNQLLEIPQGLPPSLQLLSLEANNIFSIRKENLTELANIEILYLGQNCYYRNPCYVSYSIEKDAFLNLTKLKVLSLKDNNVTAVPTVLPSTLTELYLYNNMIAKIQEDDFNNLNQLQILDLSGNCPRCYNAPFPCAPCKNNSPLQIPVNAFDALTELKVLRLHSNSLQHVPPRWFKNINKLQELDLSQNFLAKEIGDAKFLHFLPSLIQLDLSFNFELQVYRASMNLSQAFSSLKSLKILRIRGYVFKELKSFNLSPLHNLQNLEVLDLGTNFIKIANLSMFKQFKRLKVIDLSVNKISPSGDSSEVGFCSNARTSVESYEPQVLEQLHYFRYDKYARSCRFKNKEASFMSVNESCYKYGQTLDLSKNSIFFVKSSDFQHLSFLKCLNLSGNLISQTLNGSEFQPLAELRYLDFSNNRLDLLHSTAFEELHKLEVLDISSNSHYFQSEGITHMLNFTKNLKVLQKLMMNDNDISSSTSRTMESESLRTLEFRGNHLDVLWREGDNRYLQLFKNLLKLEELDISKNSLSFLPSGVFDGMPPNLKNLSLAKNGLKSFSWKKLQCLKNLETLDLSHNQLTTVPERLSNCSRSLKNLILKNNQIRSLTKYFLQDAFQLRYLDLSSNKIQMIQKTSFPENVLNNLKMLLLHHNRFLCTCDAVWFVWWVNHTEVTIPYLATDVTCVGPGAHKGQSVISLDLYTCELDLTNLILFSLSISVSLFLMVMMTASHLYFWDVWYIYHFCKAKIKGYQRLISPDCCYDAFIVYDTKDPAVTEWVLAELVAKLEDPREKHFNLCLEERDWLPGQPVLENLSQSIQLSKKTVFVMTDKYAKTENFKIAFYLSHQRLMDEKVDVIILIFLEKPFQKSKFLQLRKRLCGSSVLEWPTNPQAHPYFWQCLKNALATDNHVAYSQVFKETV
In words: TLR7 inhibition reporter assay (HEK-Blue cells, SEAP reporter, gardiquimod stimulation). Conditions: HEK-Blue cells overexpressing human TLR7, SEAP reporter, gardiquimod 7.5 μM. An outline of the steps:
(§1)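 Percent inhibition is derived from SEAP signal, scaled between agonist-plus-DMSO wells and wells given a known inhibitor. Test compounds (0.05 nM–50 μM) are pre-incubated 30 min at room temperature before agonist addition (TLR7: 7.5 μM gardiquimod; TLR8: 15.9 μM R848; TLR9: 5 nM ODN2006) and 22 h culture at 37 °C.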

The target in assay [2] is T2, human TLR8 (Homo sapiens, UniProt Q9NR97).
T2 construct: host or cells: HEK-Blue cells
T2 sequence (Q9NR97 27-1041): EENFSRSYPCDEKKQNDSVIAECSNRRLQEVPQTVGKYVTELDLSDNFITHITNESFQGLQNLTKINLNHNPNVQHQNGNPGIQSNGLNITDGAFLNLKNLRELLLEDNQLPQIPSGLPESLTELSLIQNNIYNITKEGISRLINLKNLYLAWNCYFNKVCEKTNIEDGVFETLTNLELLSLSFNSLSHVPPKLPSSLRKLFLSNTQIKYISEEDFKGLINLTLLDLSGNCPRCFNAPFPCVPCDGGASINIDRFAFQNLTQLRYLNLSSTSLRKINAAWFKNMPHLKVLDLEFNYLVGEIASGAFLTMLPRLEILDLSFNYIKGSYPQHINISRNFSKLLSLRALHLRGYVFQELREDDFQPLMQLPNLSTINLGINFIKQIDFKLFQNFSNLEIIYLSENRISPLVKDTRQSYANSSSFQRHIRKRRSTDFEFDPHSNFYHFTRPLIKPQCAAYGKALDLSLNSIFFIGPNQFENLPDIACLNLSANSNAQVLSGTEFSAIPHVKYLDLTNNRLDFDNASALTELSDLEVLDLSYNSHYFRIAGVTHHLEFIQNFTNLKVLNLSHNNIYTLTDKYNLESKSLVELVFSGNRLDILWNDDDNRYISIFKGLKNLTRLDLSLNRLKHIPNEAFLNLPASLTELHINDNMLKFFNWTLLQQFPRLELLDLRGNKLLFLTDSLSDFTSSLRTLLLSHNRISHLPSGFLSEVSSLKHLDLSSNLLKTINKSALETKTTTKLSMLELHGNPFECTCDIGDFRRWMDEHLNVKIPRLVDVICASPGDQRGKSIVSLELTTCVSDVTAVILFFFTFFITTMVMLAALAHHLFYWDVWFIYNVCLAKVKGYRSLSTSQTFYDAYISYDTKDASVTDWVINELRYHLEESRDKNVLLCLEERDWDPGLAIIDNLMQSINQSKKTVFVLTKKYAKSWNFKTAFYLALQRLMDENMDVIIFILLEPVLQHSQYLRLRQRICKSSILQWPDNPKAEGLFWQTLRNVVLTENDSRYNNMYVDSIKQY
Nature of the assay: TLR8 inhibition reporter assay (HEK-Blue cells, SEAP reporter, R848 stimulation). As to conditions: HEK-Blue cells overexpressing human TLR8, SEAP reporter, R848 15.9 μM. An outline of the steps:
as §1

The target in assay [3] is T3, human TLR9 (Homo sapiens, UniProt Q9NR96).
T3 construct: host or cells: HEK-Blue cells
T3 sequence (Q9NR96 26-1032): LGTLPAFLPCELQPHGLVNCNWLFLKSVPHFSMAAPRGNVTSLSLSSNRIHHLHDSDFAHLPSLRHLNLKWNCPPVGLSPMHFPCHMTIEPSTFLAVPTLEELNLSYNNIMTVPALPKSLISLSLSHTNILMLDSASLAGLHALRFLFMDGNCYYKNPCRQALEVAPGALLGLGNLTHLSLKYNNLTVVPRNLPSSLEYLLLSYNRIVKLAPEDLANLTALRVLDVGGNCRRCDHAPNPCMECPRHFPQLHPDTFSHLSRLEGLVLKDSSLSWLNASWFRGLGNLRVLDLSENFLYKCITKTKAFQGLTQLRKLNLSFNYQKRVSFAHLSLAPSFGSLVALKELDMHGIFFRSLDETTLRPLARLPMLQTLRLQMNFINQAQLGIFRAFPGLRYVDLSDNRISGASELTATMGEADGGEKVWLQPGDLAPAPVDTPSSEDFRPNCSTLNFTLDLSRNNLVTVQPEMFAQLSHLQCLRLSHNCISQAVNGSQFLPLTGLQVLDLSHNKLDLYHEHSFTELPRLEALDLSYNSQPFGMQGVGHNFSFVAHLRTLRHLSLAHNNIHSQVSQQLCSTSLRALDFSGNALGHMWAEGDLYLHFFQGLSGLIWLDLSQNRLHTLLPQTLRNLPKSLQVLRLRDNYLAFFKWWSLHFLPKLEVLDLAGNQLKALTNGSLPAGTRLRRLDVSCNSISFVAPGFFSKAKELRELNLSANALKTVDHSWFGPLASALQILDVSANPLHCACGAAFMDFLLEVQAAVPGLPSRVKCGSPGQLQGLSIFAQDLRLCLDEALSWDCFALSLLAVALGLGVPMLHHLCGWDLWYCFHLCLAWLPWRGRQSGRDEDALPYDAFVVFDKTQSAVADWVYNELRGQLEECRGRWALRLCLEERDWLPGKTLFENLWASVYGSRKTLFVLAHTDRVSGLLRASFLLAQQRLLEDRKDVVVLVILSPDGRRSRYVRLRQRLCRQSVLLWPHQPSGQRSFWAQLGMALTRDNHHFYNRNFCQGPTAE
In words: TLR9 inhibition reporter assay (HEK-Blue cells, SEAP reporter, ODN2006 stimulation). As to conditions: HEK-Blue cells overexpressing human TLR9, SEAP reporter, ODN2006 5 nM. An outline of the steps: as §1

For the compound `COc1cc(-c2[nH]c3ccc(CC4CN(CC#N)C4)cc3c2C(C)C)cn2ncnc12` [Example 432], the IC50 came to 8 nM in assay [1], 49 nM in assay [2] and 5350 nM in assay [3].
With `COc1cc(-c2[nH]c3ccc(CC4CN(C(C)C)C4)cc3c2C(C)C)cn2ncnc12` [Example 433], the results for the IC50 in assay [1], in assay [2] and in assay [3] were 2 nM, 3 nM and 2190 nM, respectively.
Taken in the same sequence, the figures for `COc1cc(-c2[nH]c3ccc(CC4CN(C(=O)CN(C)C)C4)cc3c2C(C)C)cn2ncnc12` [Example 434] were 1 nM, 7.4 nM and 7490 nM.
Turning to `Cc1c(-c2[nH]c3ccc(CC4CN(C(C)C)C4)cc3c2C(C)C)cn2ncnc2c1C` [Example 435], the figures for the IC50 in assay [1], in assay [2] and in assay [3] were 10 nM, 2.5 nM and 3410 nM, respectively.
Taken in the same sequence, the figures for `Cc1c(-c2[nH]c3ccc(CC4CN(C(=O)CN(C)C)C4)cc3c2C(C)C)cn2ncnc2c1C` [Example 436] were 3 nM, 11 nM and 10800 nM.
In the case of `Cc1c(-c2[nH]c3ccc(CC4CN(CCS(C)(=O)=O)C4)cc3c2C(C)C)cn2ncnc2c1C` [Example 437], the IC50 in assay [1] was found to be 8 nM; in assay [2], 4.2 nM; in assay [3] it was 4720 nM.
For the compound `COc1cc(-c2[nH]c3ccc(CCC4CN(C)C4)cc3c2C(C)C)cn2ncnc12` [Example 438], the half-maximal inhibitory concentration (IC50) was 5 nM in assay [1], 37 nM in assay [2] and 2100 nM in assay [3].
In the case of `COc1cc(-c2[nH]c3ccc(CCC4CN(C(=O)CN(C)C)C4)cc3c2C(C)C)cn2ncnc12` [Example 439], the half-maximal inhibitory concentration (IC50) turned out to be 1 nM in assay [1], 6.3 nM in assay [2] and 2240 nM in assay [3].
Taken in the same sequence, the figures for `COc1cc(-c2[nH]c3ccc(CCC4CNC4)cc3c2C(C)C)cn2ncnc12` [Example 440] were 4 nM, 16 nM and 1480 nM.
Taken in the same sequence, the figures for `COc1cc(-c2[nH]c3ccc(CCC4CN(CC(C)(C)O)C4)cc3c2C(C)C)cn2ncnc12` [Example 441] were 2 nM, 3.8 nM and 2570 nM.
As for `CC(C)c1c(-c2ccnc3[nH]ncc23)[nH]c2ccc(CN3CCN(C)CC3)cc12` [Example 442], the IC50 worked out at 26 nM in assay [1], 4.6 nM in assay [2] and 7600 nM in assay [3].
`CC(C)c1c(-c2ccnc3[nH]ncc23)[nH]c2ccc(CN3CCCCC3)cc12` [Example 443]: the IC50 in assay [1] is 279 nM; in assay [2], 158 nM; in assay [3], 2850 nM.
For the compound `CCc1c(-c2ccnc(C)c2)[nH]c2ccc(CNC(=O)CCC3CCNCC3)cc12` [Example 444], the results for the IC50 in assay [1], in assay [2] and in assay [3] were 3060 nM, 9240 nM and 4960 nM, respectively.
Taken in the same sequence, the figures for `CCc1c(-c2ccnc(C)c2)[nH]c2ccc(CNC(=O)C3CCNC3)cc12` (stereo not drawn) [Example 445] were 2680 nM, 3240 nM and 1620 nM.
On to `CCc1c(-c2ccnc(C)c2)[nH]c2ccc(CNC(=O)C3CCN(C)CC3)cc12` [Example 446], for which the IC50 in assay [1] is 541 nM; in assay [2], 70 nM; in assay [3], 406 nM.
Consider `CCc1c(-c2ccnc(C)c2)[nH]c2ccc(CNC(=O)C3CC4(CCNCC4)C3)cc12` [Example 447], for which the IC50 in assay [1] came to 4010 nM; in assay [2], 14 nM; in assay [3], 1140 nM.
Consider `CCc1c(-c2ccnc(C)c2)[nH]c2ccc(CNC(=O)N3CCN(C)CC3)cc12` [Example 448], for which the IC50 in assay [1] came out at 1520 nM; in assay [2], 134 nM; in assay [3] it was 1250 nM.
Take `CCc1c(-c2ccnc(C)c2)[nH]c2ccc(CNC(=O)OCC3CCNCC3)cc12` [Example 449]: the IC50 in assay [1] came to 1600 nM; in assay [2], 228 nM; in assay [3], 480 nM.
For `COc1ccc(-c2[nH]c3ccc(C4CCC(N)CC4)cc3c2C(C)C)cc1OC` (stereo not drawn) [Example 450], the IC50 in assay [1] is 8 nM; in assay [2] it was 11 nM; in assay [3], 2200 nM.
In the case of `COc1ccc(-c2[nH]c3ccc(C4CCC(O)CC4)cc3c2C(C)C)cc1OC` (stereo not drawn) [Example 451], the IC50 in assay [1] was found to be 139 nM; in assay [2], 238 nM; in assay [3], 19500 nM.
For `COc1ccc(-c2[nH]c3ccc(C4CCC(O)CC4)cc3c2C(C)C)cc1OC` (stereo not drawn) [Example 452], the values for the IC50 in assay [1], in assay [2] and in assay [3] were 242 nM, 737 nM and 46500 nM, respectively.
Taken in the same sequence, the figures for `Cc1cc(-c2[nH]c3ccc([C@H]4C[C@H]4C(=O)NC4CCC5CNCC54)cc3c2C(C)C)ccn1` (stereo partly drawn) [Example 453] were 77 nM, 66 nM and 191 nM.
Regarding `Cc1cc(-c2[nH]c3ccc([C@H]4C[C@H]4C(=O)N4CC5CC4CN5)cc3c2C(C)C)ccn1` (stereo partly drawn) [Example 454], the IC50 in assay [1] came out at 96 nM; in assay [2], 5.5 nM; in assay [3], 363 nM.

The values above are taken from US11878975B2, “Substituted indole compounds useful as TLR inhibitors” (BRISTOL-MYERS SQUIBB COMPANY, priority 2017, dated 2024).
